Drawing on patent US12668589B2, “N-formamidopyrazoline derivative as P2X3 receptor antagonist and use thereof” (HANGZHOU WESTAN PHARMACEUTICAL TECHNOLOGY CO., LTD, priority 2020, dated 2026), this text covers IC50 for 32 compounds.

The assay concerns the target T1, human P2X3 (Homo sapiens, UniProt P56373).
T1 sequence (P56373 1-397): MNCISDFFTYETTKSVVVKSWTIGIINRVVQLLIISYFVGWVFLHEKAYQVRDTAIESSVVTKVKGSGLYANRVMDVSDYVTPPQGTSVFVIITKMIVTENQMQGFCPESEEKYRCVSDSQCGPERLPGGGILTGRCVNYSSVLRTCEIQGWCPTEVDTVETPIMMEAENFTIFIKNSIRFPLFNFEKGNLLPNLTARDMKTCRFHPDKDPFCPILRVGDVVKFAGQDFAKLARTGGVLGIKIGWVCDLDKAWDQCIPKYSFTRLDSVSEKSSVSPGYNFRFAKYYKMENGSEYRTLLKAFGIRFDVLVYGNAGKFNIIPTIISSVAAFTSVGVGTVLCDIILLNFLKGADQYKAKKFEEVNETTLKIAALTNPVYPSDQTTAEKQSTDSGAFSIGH
The experiment in a line: cell-based.
Procedure: An HEK293 cell line was used as cells. HEK293 cells were placed in a 37° C. incubator with 5% CO2 for culture. Passage was conducted when the cells grew to a density of 80% to 90%. A culture medium in an original 60 mm culture dish was discarded. After the cells were washed 3 times with a sterilized PBS solution, and the solution was blotted up. […] After the trypsin was blotted up, 3 mL of a cell culture medium was added to resuspend the cells. 0.5 mL of a resuspension solution was taken to be added into a new culture dish, and an total culture solution was supplemented to 5 mL. The culture dish was gently shaken to distribute the cells evenly, and then placed in a 37° C. incubator with 5% CO2 for culture.
First, treated slides were spread in a small 35 mm culture dish. 100 μL of resuspended cells were added, and then a total amount of a culture medium was supplemented to 2 mL. Target genes were transferred into the HEK293 cell line by adopting a calcium transfection method. Small dishes to be transfected were subjected to medium change 1 hour before transfection. 2 mL of a fresh cell culture solution was added. A 1.5 mL EP tube was taken, 200 μL of a 0.25 M CaCl2) solution was added, and 3 μg of plasmids to be transfected were added, and even mixing was conducted to form a DNA-CaCl2 solution. […] A pipette tip was used for mixing while adding. After adding all, gentle blowing and beating were conducted 8 to 10 times. After still standing for 5 minutes, they were added into small dishes. The small dishes were shaken slightly to mix the solution evenly, and the placed in a cell incubator. Culture mediums were replaced after 8 to 10 hours. Electrophysiological experiments were performed 24 to 48 hours after transfection.
Electrophysiological recording electrodes were obtained by two-step pulling by using an electrode puller (PP-10, Narishige). After an internal solution is injected into the electrodes, a water inlet resistance is 3 to 5 MΩ. During the experiment, a high potassium salt internal solution containing nystatin (K2SO4 of 75 mM, KCl of 120 mM, MgSO4 of 5 mM, HEPES of 10 mM, adjusting pH to 7.2 with Tris-base, and used after filtration) was used as an electrode internal solution. After the cells were sealed by the electrodes, there was no need to further break cell membranes in a sucked manner, but the cell membranes were bored through the perforation of the nystatin to the cell membranes, to form a hole channel. […] A clamping voltage was −60 mV, a sampling frequency was 10 kHz, and filtering was conducted at 2 kHz.
A working concentration of a P2X3 receptor agonist ATP was 1 μM, and an interval time between two times of ATP administrations was 10 minutes.
A word on the IC50: it is the point on the concentration scale where inhibition reaches its midpoint. Lower therefore signals greater potency in that assay. Compound `Cc1ccc(C2=NN(C(=O)N[C@H](C)c3ccc(C(F)(F)F)nc3)C[C@@H]2N(C)C(=O)CN(C)C)cc1` [Compound 15, (S)-4-(2-(dimethylamino)-N-methylacetamido)-3-(4-methylphenyl)-N-((R)-1-(6-(trifluoromethyl)pyridin-3-yl)ethyl)-4,5-dihydro-1H-pyrazol-1-carboxamide] returned an IC50 of 2300 nM. Then `COC(=O)N(C)[C@H]1CN(C(=O)N[C@H](C)c2ccc(C(F)(F)F)nc2)N=C1c1ccc(OC)cc1` [Compound 16, (S)-4-(N-methyl-N-methoxycarbonylamino)-3-(4-methoxyphenyl)-N-((R)-1-(6-(trifluoromethyl)pyridin-3-yl)ethyl)-4,5-dihydro-1H-pyrazol-1-carboxamide], with 132 nM; and `COC(=O)N(C)[C@@H]1CN(C(=O)N[C@H](C)c2ccc(C(F)(F)F)nc2)N=C1c1ccc(OC)cc1` [Compound 16a, (R)-4-(N-methyl-N-methoxycarbonylamino)-3-(4-methoxyphenyl)-N-((R)-1-(6-(trifluoromethyl)pyridin-3-yl)ethyl)-4,5-dihydro-1H-pyrazol-1-carboxamide], with 88 nM. Compound `CC(=O)N1CCN([C@H]2CN(C(=O)N[C@H](C)c3ccc(C(F)(F)F)nc3)N=C2c2ccc(C)cc2)C1=O` [Compound 18, (S)-4-(3-acetyl-2-oxoimidazolidin-1-yl)-3-(4-methylphenyl)-N-((R)-1-(6-(trifluoromethyl)pyridin-3-yl)ethyl)-4,5-dihydro-1H-pyrazol-1-carboxamide] displayed an IC50 of 173 nM. Regarding `CC(=O)N1CCN([C@@H]2CN(C(=O)N[C@H](C)c3ccc(C(F)(F)F)nc3)N=C2c2ccc(C)cc2)C1=O` [Compound 18a, (R)-4-(3-acetyl-2-oxoimidazolidin-1-yl)-3-(4-methylphenyl)-N-((R)-1-(6-(trifluoromethyl)pyridin-3-yl)ethyl)-4,5-dihydro-1H-pyrazol-1-carboxamide], the half-maximal inhibitory concentration (IC50) was found to be 95 nM. `CC(=O)N1CCN([C@H]2CN(C(=O)N[C@H](C)c3ccc(C(F)(F)F)nc3)N=C2c2ccc(C)cc2)CC1` [Compound 19] displayed a concentration for half-maximal inhibition (IC50) of 3860 nM.

For `Cc1ccc(C2=NN(C(=O)N[C@H](C)c3ccc(C(F)(F)F)nc3)C[C@H]2N2CCCC2=O)cc1` [Compound 21a], the half-inhibitory concentration (IC50) stood at 85 nM. Consider `Cc1ccc(C2=NN(C(=O)N[C@H](C)c3ccc(C(F)(F)F)nc3)C[C@H]2N2CCOC2=O)nc1` [Compound 23a, (R)-4-(2-oxooxazolidin-3-yl)-3-(5-methylpyridin-2-yl)-N-((R)-1-(6-(trifluoromethyl)pyridin-3-yl)ethyl)-4,5-dihydro-1H-pyrazol-1-carboxamide], for which the 50% inhibitory concentration (IC50) was determined as 46 nM. In the case of `C[C@@H](NC(=O)N1C[C@H](N2CCOCC2=O)C(c2ccc(F)cc2)=N1)c1ccc(C(F)(F)F)nc1` [Compound 24, (S)-4-(3-oxomorpholin-4-y])-3-(4-fluorophenyl)-N-((R)-1-(2-(6-(trifluoromethyl)pyridin-3-yl)ethyl)-4,5-dihydro-1H-pyrazol-1-carboxamide], the midpoint of inhibition, the IC50, lay at 212 nM. The compound `C[C@@H](NC(=O)N1C[C@@H](N2CCOCC2=O)C(c2ccc(F)cc2)=N1)c1ccc(C(F)(F)F)nc1` [Compound 24a] displayed a concentration for half-maximal inhibition (IC50) of 145 nM. On to `CC(=O)N(C)[C@H]1CN(C(=O)N[C@H](C)c2ccc(C(F)(F)F)nc2)N=C1c1ccc(C)cc1` [Compound 25], for which the 50% inhibitory concentration (IC50) is 158 nM.

For the compound `CC(=O)N(C)[C@@H]1CN(C(=O)N[C@H](C)c2ccc(C(F)(F)F)nc2)N=C1c1ccc(C)cc1` [Compound 25a], the half-maximal inhibitory concentration (IC50) stood at 112 nM.

Regarding `Cc1ccc(C2=NN(C(=O)N[C@H](C)c3cnc(C(F)(F)F)cn3)C[C@@H]2N2CCOCC2=O)cc1` [Compound 26], the concentration for half-maximal inhibition (IC50) amounted to 143 nM. Take `Cc1ccc(C2=NN(C(=O)N[C@H](C)c3cnc(C(F)(F)F)cn3)C[C@H]2N2CCOCC2=O)cc1` [Compound 26a]: the IC50 stood at 332 nM.

On to `Cc1ccc(C2=NN(C(=O)N[C@H](C)c3cnc(C)cn3)C[C@@H]2N2CCOC2=O)cc1` [Compound 27], for which the midpoint of inhibition, the IC50, lay at 389 nM. Then `Cc1ccc(C2=NN(C(=O)N[C@H](C)c3cnc(C)cn3)C[C@H]2N2CCOC2=O)cc1` [Compound 27a], with 257 nM. Compound `Cc1cnc([C@@H](C)NC(=O)N2C[C@H](N3CCCC3=O)C(c3ccc(F)cc3)=N2)cn1` [Compound 28, (S)-4-(2-oxopyrrolidin-1-yl)-3-(4-fluorophenyl)-N-((R)-1-(5-methylpyrazin-2-yl)ethyl)-4,5-dihydro-1H-pyrazol-1-carboxamide] registered an IC50 of 218 nM. Consider `Cc1cnc([C@@H](C)NC(=O)N2C[C@@H](N3CCCC3=O)C(c3ccc(F)cc3)=N2)cn1` [Compound 28a, (R)-4-(2-oxopyrrolidin-1-yl)-3-(4-fluorophenyl)-N-((R)-1-(5-methylpyrazin-2-yl)ethyl)-4,5-dihydro-1H-pyrazol-1-carboxamide], for which 165 nM corresponded to half-maximal inhibition (IC50). Then `COc1ccc([C@@H](C)NC(=O)N2C[C@H](N3CCOC3=O)C(c3ccc(Cl)cc3)=N2)nn1` [Compound 29, (S)-4-(2-oxooxazolidin-3-yl)-3-(4-chlorophenyl)-N-((R)-1-(6-(methoxy)pyridazin-3-yl)ethyl)-4,5-dihydro-1H-pyrazol-1-carboxamide], with 152 nM; and `COc1ccc([C@@H](C)NC(=O)N2C[C@@H](N3CCOC3=O)C(c3ccc(Cl)cc3)=N2)nn1` [Compound 29a, (R)-4-(2-oxooxazolidin-3-yl)-3-(4-chlorophenyl)-N-((R)-1-(6-(methoxy)pyridazin-3-yl)ethyl)-4,5-dihydro-1H-pyrazol-1-carboxamide], with 105 nM.

Regarding `Cc1ccc(C2=NN(C(=O)N[C@H](C)c3cnc(C(F)(F)F)nc3)C[C@@H]2N2CCCC2=O)cc1` [Compound 32, (S)-4-(2-oxopyrrolidin-1-yl)-3-(4-methylphenyl)-N-((R)-1-(2-(trifluoromethyl)pyrimidin-5-yl)ethyl)-4,5-dihydro-1H-pyrazol-1-carboxamide], 127 nM corresponded to half-maximal inhibition (IC50).

As to `C[C@@H](NC(=O)N1C[C@H](N2CCOCC2=O)C(c2ccc(F)cc2)=N1)c1cnc(C(F)(F)F)nc1` [Compound 33, (S)-4-(3-oxomorpholin-4-yl)-3-(4-fluorophenyl)-N-((R)-1-(2-(trifluoromethyl)pyrimidin-5-yl)ethyl)-4,5-dihydro-1H-pyrazol-1-carboxamide], the IC50 came out at 254 nM. The compound `C[C@@H](NC(=O)N1C[C@@H](N2CCOCC2=O)C(c2ccc(F)cc2)=N1)c1cnc(C(F)(F)F)nc1` [Compound 33a, (R)-4-(3-oxomorpholin-4-yl)-3-(4-fluorophenyl)-N-((R)-1-(2-(trifluoromethyl)pyrimidin-5-yl)ethyl)-4,5-dihydro-1H-pyrazol-1-carboxamide] returned an IC50 of 365 nM. Compound `CC(=O)N(C)[C@H]1CN(C(=O)N[C@H](C)c2cnc(C(F)(F)F)nc2)N=C1c1ccc(C)cc1` [Compound 34, (S)-4-(N-methylacetamido)-3-(4-methylphenyl)-N-((R)-1-(2-(trifluoromethyl)pyrimidin-5-yl)ethyl)-4,5-dihydro-1H-pyrazol-1-carboxamide] had a half-maximal inhibitory concentration (IC50) of 169 nM. Next, `CC(=O)N(C)[C@@H]1CN(C(=O)N[C@H](C)c2cnc(C(F)(F)F)nc2)N=C1c1ccc(C)cc1` [Compound 34a, (R)-4-(N-methylacetamido)-3-(4-methylphenyl)-N-((R)-1-(2-(trifluoromethyl)pyrimidin-5-yl)ethyl)-4,5-dihydro-1H-pyrazol-1-carboxamide]: 231 nM; `C[C@@H](NC(=O)N1C[C@H](N2CCOCC2=O)C(c2ccc(Cl)cc2)=N1)c1cnc(C(F)(F)F)nc1` [Compound 35, (S)-4-(3-oxomorpholin-4-yl)-3-(4-chlorophenyl)-N-((R)-1-(2-(trifluoromethyl)pyrimidin-5-yl)ethyl)-4,5-dihydro-1H-pyrazol-1-carboxamide]: 215 nM. In the case of `C[C@@H](NC(=O)N1C[C@@H](N2CCOCC2=O)C(c2ccc(Cl)cc2)=N1)c1cnc(C(F)(F)F)nc1` [Compound 35a, (R)-4-(3-oxomorpholin-4-yl)-3-(4-chlorophenyl)-N-((R)-1-(2-(trifluoromethyl)pyrimidin-5-yl)ethyl)-4,5-dihydro-1H-pyrazol-1-carboxamide], the IC50 stood at 451 nM. `COc1ccc(C2=NN(C(=O)N[C@H](C)c3cnc(C(F)(F)F)nc3)C[C@@H]2N2CCOCC2=O)cc1` [Compound 36, (S)-4-(3-oxomorpholin-4-yl)-3-(4-methoxyphenyl)-N-((R)-1-(2-(trifluoromethyl)pyrimidin-5-yl)ethyl)-4,5-dihydro-1H-pyrazol-1-carboxamide] came in with an IC50 of 283 nM.

The compound `COc1ccc(C2=NN(C(=O)N[C@H](C)c3cnc(C(F)(F)F)nc3)C[C@H]2N2CCOCC2=O)cc1` [Compound 36a, (R)-4-(3-oxomorpholin-4-yl)-3-(4-methoxyphenyl)-N-((R)-1-(2-(trifluoromethyl)pyrimidin-5-yl)ethyl)-4,5-dihydro-1H-pyrazol-1-carboxamide] came in with an IC50 of 422 nM. `CC(=O)N1CCN([C@H]2CN(C(=O)N[C@H](C)c3cnc(C(F)(F)F)nc3)N=C2c2ccc(C)cc2)CC1` [Compound 37, (S)-4-(4-acetylpiperazin-1-yl)-3-(4-methylphenyl)-N-((R)-1-(2-(trifluoromethyl)pyrimidin-5-yl)ethyl)-4,5-dihydro-1H-pyrazol-1-carboxamide]: the half-maximal inhibitory concentration (IC50) was found to be 3730 nM. `Cc1ccc(C2=NN(C(=O)N[C@H](C)c3cnc(C(F)(F)F)nc3)C[C@@H]2N2CCN(C)CC2)cc1` [Compound 38] had a half-inhibitory concentration (IC50) of 2670 nM. Consider `Cc1ccc(C2=NN(C(=O)N[C@H](C)c3cnc(C(F)(F)F)nc3)C[C@@H]2N2CCOCC2)cc1` [Compound 39, (S)-4-(morpholin-4-yl)-3-(4-methylphenyl)-N-((R)-1-(2-(trifluoromethyl)pyrimidin-5-yl)ethyl)-4,5-dihydro-1H-pyrazol-1-carboxamide], for which the IC50 turned out to be 6100 nM.
